Results taken from US20230149358A1, “COMBINATION CANCER THERAPY WITH PENTAAZA MACROCYCLIC RING COMPLEX AND HORMONE THERAPY AGENT” (Galera Labs, LLC, priority 2020, published 2023).
Entries after “also recorded” stand apart in the source; their conditions may differ.

How the values were obtained:
[1] = test system: head-and-neck cancer patients; conditions: head-and-neck cancer patients undergoing chemoradiation therapy; cited from earlier work
[2] = test system: LNCaP-MnSOD^K68Q xenografts; test: LNCaP-MnSOD^K68Q hindlimb xenograft growth in nude mice; format: in vivo; conditions: male nude mice; GC4419 10 mg/kg once per week, ENZ 25 mg/kg/day; 46 days
Method: (§1) In FIG. 21(a), clonogenic cell survival experiments were performed in LNCaP-ENZR (left two bars) and LNCaP-MnSOD^K68Q (right two bars) treated with ENZ, with or without GC4419 (20 μM) for 5 days. […] Tumor volumes were measured three times a week for 46 days. For each group n=10. Error bars ±1 SEM. All experiments done in triplicate. **p<0.01.
Thus, it was surmised that restoring SOD activity, using the pentaaza macrocyclic ring complex GC4419, an agent that chemically detoxifies superoxide, would reverse/convert the ENZR to a sensitive phenotype. […] The dose and pharmacokinetics for GC4419 is based on data for murine models^92-93.

rat = rat model; cited from earlier work
mice lacking Sirt3 = conditions: IP 2 mg/kg, 30 minutes before IR; cited from earlier work
LNCaP-ENZR cells = test: Clonogenic cell survival, LNCaP-ENZR cells; format: cell-based; conditions: ENZ with GC4419 (20 μM) for 5 days
Method: as §1
To address whether there is a link between MnSOD-K68-Ac and ENZR, two ENZ sensitive prostate tumor cell lines were used, LNCaP or 22RV1, which were cultured in 5 μM of ENZ for 3 weeks and then continuously grown at 10 μM, using an established method^91 to select for ENZR cells. […] Since K68-Ac alters the surface charge at the MnSOD tetramerization interface, we assessed the oligomerization state of MnSOD in LNCaP-ENZR cells.

[3] = test system: Sirt3^−/−-MT-SIRT3^WT tumor cells; test: Mammary allograft tumor growth (bioluminescence), Sirt3^−/−-MT-SIRT3^WT; format: in vivo; conditions: Sirt3^−/−-MT-SIRT3^WT allografts, nude mice, IP
Method: (§2) Mice were subsequently injected with luciferin potassium (120 mg/kg) every week and signal intensity will be quantified. Error bars represent one SD from the mean.
(§3) These cell lines were subsequently infected with and selected to express either a SIRT3 wild-type (Sirt3^−/−-MT-SIRT3^WT) or deacetylation null (Sirt3^−/−-MT-SIRT3^DN) gene and a lenti-luciferase to assess tumor growth by bioluminescence. Allograft tumor mice were split into four groups: (1) control, untreated Sirt3^−/−-MT-SIRT3^DN; (2) GC4419 treated Sirt3^−/−-MT-SIRT3^DN; (3) control, untreated Sirt3^−/−-MT-SIRT3^WT; and (4) GC4419 treated Sirt3^−/−-MT-SIRT3^WT.

MCF7-HTR cells [4] = test: Clonogenic cell survival, hydroxy-Tam-resistant MCF7-HTR cells; format: cell-based, human; conditions: 5 μM GC4419 for 5 days
Method: Clonogenic cell survival assay. For the clonogenic survival analysis, exponentially growing cells were replated using appropriate dilutions, and clonogenic survival was evaluated after 14 days in regular growth medium. Cells were stained with crystal violet, and colonies of >50 cells were counted and utilized to calculate clonogenic survival^46.
To test parameters indicative of oxidative stress, a clonogenic assay with hydroxy-Tam and antioxidant treatments was performed. Cells were plated at a density of 50,000 cells per 60-mm dish and treated with 1 μM hydroxy-Tam (Sigma) and 5 μM GC4419 (Galera Therapeutics) for a total of 120 h. This protocol was repeated with a fresh medium change every 24 h for 5 days. On day 6, the cells were trypsinized, counted, and replated in control medium using appropriate dilutions, and clonogenic survival was evaluated.

[5] = test system: Sirt3^−/−-MT-SIRT3^DN tumor cells; test: Mammary allograft tumor growth (bioluminescence), Sirt3^−/−-MT-SIRT3^DN; format: in vivo; conditions: Sirt3^−/−-MT-SIRT3^DN allografts, nude mice, IP every other day for five weeks
Method: as §2, §3

MCF7-Cispl-R cells = test: Cisplatin sensitivity, MCF7-Cispl-R cells; format: cell-based, human; conditions: MCF7-Cispl-R treated with GC4419
T47D-MnSOD^K68Q cells = test: Ki-67 staining, T47D-MnSOD^K68Q cells; format: cell-based, human; conditions: 5 μM GC4419 and/or 1 μM 4-hydroxy-Tam for 5 days
Method: MCF7-MnSOD^K68Q cells (in FIGS. 17a and 17b) and T47D-MnSOD^K68Q cells (in FIGS. 17c and 17d) were treated with 5 μM GC4419 and/or 1 μM 4-hydroxy-Tam for 5 days, and then stained for Ki-67 as well as DAPI. Quantifications of average Ki-67 intensity are shown in the bar graphs. In FIG. 17e, MCF7 and MCF7-HTR cells were implanted into both hind limbs of nude mice and tumor volumes were measured every 3 days for 6 weeks and the number of tumors that successfully implanted versus the total number of mice infected with MCF7 and MCF7-HTR as well as the average tumor weight and tumor size are shown. Representative images are shown. All experiments were done in triplicate. Error bars represent ±1 SEM. ***p<0.001.
(§4) Cells seeded on glass coverslips were fixed in 4% paraformaldehyde and then blocked with 1% BSA and 10% normal goat serum in 1×PBS. Cells were incubated with anti-Ki-67 (c-bioscience) antibody in 1×PBS followed by incubation with goat anti-rabbit IgG conjugated with Alexa Fluor 647 (Invitrogen) in 1×PBS with 5% goat serum. Cells were washed in 1×PBS, mounted, and imaged with a fluorescence microscope. Fluorescence images were captured using a laser scanning confocal microscope (Nikon A1R). The paired images in all the figures were collected at the same gain and offset settings. Post-collection processing was applied uniformly to all paired images.

T47D-HTR cells = test: Ki-67 staining, T47D-HTR cells; format: cell-based, human; conditions: 5 μM GC4419 and/or 1 μM 4-hydroxy-Tam for 5 days
Excerpt: (§5) With respect to FIG. 16a, the data from FIG. 7i, where MCF7-HTR cells were stained for Ki-67, as well as DAPI, were counted with ImageJ and quantified for average Ki-67 intensity as shown in the bar graph. With respect to FIGS. 16b and 16c, T47D and T47D-HTR cells were stained for Ki-67 as well as DAPI, and particles in the nucleus were counted with ImageJ and quantified for average Ki-67 intensity as shown in the bar graph. In FIGS. 16d and 16e, MCF7-HTR cells, and in FIGS. 16f and 16g, T47D-HTR cells, were treated with 5 μM GC4419 and/or 1 μM 4-hydroxy-Tam for 5 days, and then stained for Ki-67 as well as DAPI. Quantifications of average Ki-67 intensity are shown in the bar graphs. All experiments were done in triplicate. Error bars represent ±1 SEM. ***p<0.001. Representative images are shown.
as §4, with “Post-collection processing was applied uniformly to all paired images.” left out

LNCaP-MnSOD^K68Q cells = test: Clonogenic cell survival, LNCaP-MnSOD^K68Q cells; format: cell-based; conditions: ENZ with GC4419 (20 μM) for 5 days
Method: as §1

MCF7-HTR cells [6] = test: Ki-67 staining, MCF7-HTR cells; format: cell-based, human; conditions: 5 μM GC4419 and/or 1 μM 4-hydroxy-Tam for 5 days
Excerpt: as §5
as §4, with “Post-collection processing was applied uniformly to all paired images.” left out

## [Cl][Mn][Cl].c1cc2nc(c1)CN[C@H]1CCCC[C@@H]1NCCN[C@H]1CCCC[C@@H]1NC2 [GC4419]
[1]
  oral mucositis: reduce oral mucositis
[2]
  xenograft growth (tumor volume): significant inhibition of xenograft growth
rat
  VEGFr inhibitor-induced pulmonary disease: attenuate VEGFr inhibitor-induced pulmonary disease
Mice lacking Sirt3
  liver damage: attenuated liver damage
LNCaP-ENZR cells
  tumor cell survival in the presence of ENZ (clonogenic): significant decrease in tumor cell survival in the presence of ENZ; also recorded: reversed the ENZR
[3]
  allograft tumor growth: no change in tumor growth was observed
MCF7-HTR cells [4]
  sensitivity to hydroxy-Tam (clonogenic cell survival): became sensitive to hydroxy-Tam
[5]
  allograft tumor growth: significant decrease in tumor growth; also recorded: tumor growth is inhibited
MCF7-Cispl-R cells
  cisplatin resistance phenotype: converted the Cispl-R cells to a sensitive phenotype
T47D-MnSOD^K68Q cells
  Ki-67 staining: reversed the increase in Ki-67 IHC staining; also recorded: decreased Ki-67 levels
T47D-HTR cells
  Ki-67 staining: exhibited decreased Ki-67 IHC staining; also recorded: decreased Ki-67 levels
LNCaP-MnSOD^K68Q cells
  ENZ resistance phenotype (clonogenic cell survival): converted to a sensitive phenotype; also recorded: reversed the ENZR
MCF7-HTR cells [6]
  Ki-67 staining: exhibited decreased Ki-67 IHC staining
